Data reported in US20110015261A1, “USE OF A COMPOSITION COMPRISING AT LEAST ONE BETA-BLOCKER FOR THE TREATMENT OF SLEEP DISORDERS” (Zleepax Europe ApS, priority 2007, published 2011).
Where two headings read alike, the source gives them in different places.

Tests used:
[1] = tested on: patients with hypertension; details: cited from earlier work; for effect on the quality of sleep: patients with hypertension (Stoschitzky 2006)
[2] = tested on: nocturnal aMT6s secretion; details: healthy volunteers (Stoschitzky 2006); cited from earlier work
[3] = tested on: non-hypertensive stressed individuals with transient insomnia; assay: Sleep quality in non-hypertensive stressed individuals with transient insomnia; type: in vivo, human; details: 1.25 mg 2 hours before bedtime; 6 individuals (5 males, 1 female)
Method: 6 non-hypertensive stressed individuals with transient insomnia (5 males and 1 female) were treated with 1.25 mg Hypoloc (Nebivolol) 2 hours before bedtime.

SMILES	effect on the quality of sleep [1]	quality of sleep ([1]; patients with hypertension (Testa 1993))	effects on the nocturnal aMT6s urinary secretion [2]	sleep quality as reported by individuals [3]	quality of sleep ([1]; patients with hypertension (Erdem 2007))
CC(C)NCC(O)COc1ccc(COCCOC(C)C)cc1 (centres unmarked) [Bisoprolol]	no negative effect				
C[C@H](CS)C(=O)N1CCC[C@H]1C(=O)O [Captopril]		improve the quality of sleep			
COc1ccccc1OCCNCC(O)COc1cccc2[nH]c3ccccc3c12 (centres unmarked) [Carvedilol]	no negative effect		little if any effects		
OC(CNCC(O)C1CCc2cc(F)ccc2O1)C1CCc2cc(F)ccc2O1 (centres unmarked) [Nebivolol]	no negative effect		little if any effects	significant improvement in sleep quality	can improve the quality of sleep
